Data: publication PMC8305768, “Design, Synthesis and Antiparasitic Evaluation of Click Phospholipids” (Molecules, 2021)
Counter-ions that a name gives are not always drawn.

Tests used:
[1] = test system: T. cruzi Y strain intracellular amastigotes; test: Activity against T. cruzi Y strain intracellular amastigotes (HG39 cell-line, parasite load); assay type: cell-based; settings: Trypanosoma cruzi, read-out: Parassite Load Reduction (%)
Method: T. cruzi epimastigotes (Y strain) were obtained by axenic cultivation in the LIT medium, supplemented with 10% FBS (Cultilab, São Paulo, Brazil). Cultures were maintained at […] for 4–5 days until they reached the log growth phase. New cultures were made every 4 days from the initial inoculum of 2 × 10^6 parasites/mL. T. cruzi trypomastigotes (Y strain) were maintained in culture by the infection of LLC-MK2 (ATTC-CCL7) epithelial cells. This cell line was cultured in […] tissue culture bottles (TPP) in RPMI 1640 medium (Gibco), (Thermo Fischer Scientific, Carlsbad, CA, USA) supplemented with 10% FBS (Gibco) (Thermo Fischer Scientific, Carlsbad, CA, USA). Cultures were maintained at 37 °C under 5% CO2 atmosphere, and RPMI 1640 medium and SFB were exchanged every 48 h. After confluence, the cultures were treated with 1 mL of a mixture of trypsin and versene (Sigma, São Paulo, Brazil) (0.2 and 0.002%, respectively). After 24 h, a subconfluence culture was infected with the trypomastigotes in the approximate proportion of 10:1 parasites/cell. From five to seven days post infection, the trypomastigote stage was obtained from the culture supernatant. Alternatively (Figure 2), T. cruzi strain Y was maintained as previously described.

CYP2C19 = target: T1, CYP2C19 (Homo sapiens, UniProt P33261); test: Cytochrome P450 inhibition assay (P450-Glo) CYP2C19; assay type: in vitro ADME; settings: compounds 10 μM; miltefosine 10 μM or 1 μM
T1 construct: purchased Corning Inc; host or cells: baculovirus-infected insect cells
Description: Cytochrome (CYP) P450 inhibition assay: These assays made use of microsomal preparations of CYP450 (1A2, 2C9, 2C19, 2D6 and 3A4) from baculovirus-infected insect cells (Corning Inc., Corning, NY, USA) and cytochrome c reductase (and cytochrome b5 for CYP450 3A4). For detection of CYP450 activity, the luminescence-based P450-Glo (Promega Corp., Madison, WI, USA) assay system was used that contained a luminogenic CYP450 substrate, lyophilized luciferin detection reagent and reconstitution buffer. The substrates were luciferin derivatives of CYP450-specific substrates that produce (4S)-4,5-dihydro-2-(6-hydroxybenzothiazolyl)-4-thiazolecarboxylic acid (D-luciferin) after cleavage by CYP450 (CYP450 3A4, luciferin-IPA; CYP450 2C19, luciferin-H EGE; CYP450 2C9, luciferin-H; CYP450 2D6, luciferin-ME EGE; CYP450 1A2, luciferin-1A2). CYP450 reactions were initiated by addition of the NADPH regeneration system to the enzyme–substrate mixture with the luciferin detection reagent stopping the reaction and the D-luciferin being converted to oxyluciferin under the production of light being proportional to the CYP450 activity. The CYP450 assays were performed using the Tecan Fluent liquid-handling automation platform (Tecan Group Ltd., Mannedorf, Switzerland) in the 384-well assay format. Compounds were added into an empty 384-well plate (100 nL/well in 1% v/v DMSO) using the Echo 550 Liquid Handler followed by the addition of 5 μL/well of the CYP450/substrate mixture and incubation for 30 min at 37 °C, after which the reaction was initiated by the addition of the 5 μL/well NADPH regeneration system. After a further 30-min incubation at 37 °C, the CYP450 reaction was stopped and the luciferase reaction was simultaneously initiated by addition of 10 μL/well of luciferin detection reagent, followed by an additional 30-min incubation at 37 °C. The luminescence signal was detected using an Infinite M1000 PRO plate reader (Tecan Group Ltd., Mannedorf, Switzerland). The NCs yielded 0% inhibition (1% v/v DMSO) and standard CYP450 specific inhibitors were used as positive controls, yielding 100% inhibition (CYP450 1A2, alpha-naphthoflavone; CYP450 2C9, sulfaphenazole; CYP450 2C19, troglitazone; CYP450 2D6, quinidine; CYP450 3A4, ketoconazole).
Data analysis: The screening data were obtained in triplicate and analysed using ActivityBase (IDBS, Guildford, UK), and outlier elimination in the control wells was performed using the 3-sigma method. Unless stated, dose–response experiments were performed in the 11-point format with the IC50 value, Hill slope, minimum signal and maximum signal for each dose–response curve obtained using a four-parameter logistic fit in the XE module of ActivityBase (IDBS).

[2] = test system: mitochondria of 786-0 cells; test: Mitochondrial toxicity assay (MitoTracker Red CMXRos, 786-0 cells); assay type: cell-based; settings: compounds 10 μM, miltefosine 10 μM or 1 μM
Method: Mitochondrial toxicity assay: This assay made use of the MitoTracker Red CMXRos dye (Thermo Fischer Scientific, Waltham, MA, USA), which stains the mitochondria in live cells and its accumulation is dependent on the presence of a membrane potential. The renal carcinoma 786-0 cell line was used for mitochondrial toxicity screening. Cells were harvested from a 75 cm^2 flask at 80% confluency by washing once with 5 mL of rt PBS and incubating with 1 mL of 0.05% v/v trypsin/0.02% v/v EDTA for 3 min. Cells were suspended in 10 mL of prewarmed cell culture media (RPMI-1 640 supplemented with 10% v/v FCS, 100 U/mL penicillin and 100 μg/mL streptomycin) and counted using a Scepter (Merck Millipore, Darmstadt, Germany). The 786-0 cells were diluted to 75,000 cells/mL and 20 μL of this suspension added to each well of a 384-well plate. Cells were incubated for 36 h at 37 °C and 5% CO2, and compounds were added using a predilution plate. The positive control was valinomycin at a final concentration of 1 μM, with the negative control being DMSO at the same concentration. Ten microliters of compounds and controls were added to cells and incubated for 6 h at 37 °C and 5% CO2 in a humidity controlled atmosphere. After incubation, 10 μL of a 200 nM solution of MitoTracker Red CMXRos in prewarmed cell culture media was added to each well, and the 786-0 cells were incubated for an additional 45 min at 37 °C and 5% CO2. MitoTracker Red CMXRos uptake was measured using an Opera Imaging System. To facilitate automatic image analysis, the layout containing the compound area and the valinomycin and DMSO control areas were created and stored. A sublayout of five evenly dispersed fields per well were used. These settings also included a measurement height of 1 μm, which was stored in an exposure file format. By using the stored settings and files, an automated run was repeatedly created and executed. The images were transferred to a file server and uploaded into Columbus 2.4.0 (PerkinElmer, Waltham, MA. USA) using the built-in helper function and analysed therein.

T1 sequence (P33261 whole entry): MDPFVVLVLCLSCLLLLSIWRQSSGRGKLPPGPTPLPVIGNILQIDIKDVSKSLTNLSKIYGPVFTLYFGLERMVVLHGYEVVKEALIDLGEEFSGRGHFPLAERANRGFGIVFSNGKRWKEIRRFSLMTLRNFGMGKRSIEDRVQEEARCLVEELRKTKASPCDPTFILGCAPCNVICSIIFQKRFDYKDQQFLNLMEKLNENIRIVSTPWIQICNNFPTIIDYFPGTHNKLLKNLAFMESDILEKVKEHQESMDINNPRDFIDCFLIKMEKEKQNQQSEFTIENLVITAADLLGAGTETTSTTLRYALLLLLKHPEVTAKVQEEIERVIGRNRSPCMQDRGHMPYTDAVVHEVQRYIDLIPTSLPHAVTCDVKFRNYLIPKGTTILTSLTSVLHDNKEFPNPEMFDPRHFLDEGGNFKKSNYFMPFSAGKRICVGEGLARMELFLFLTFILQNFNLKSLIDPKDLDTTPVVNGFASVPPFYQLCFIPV

SMILES: CCCCCCCCc1noc(CCCCCCCCCCOP(=O)([O-])OCC[N+](C)(C)C)n1 [Compound 54, 10-(3-octyl-1,2,4-oxadiazol-5-yl)decyl (2-(trimethylammonio)ethyl) phosphate inner salt]
- inhibition of growth at 10 µM [1]: 90.5%
- % inhibition ± SD at 10 μΜ CYP2C19 (CYP2C19): 10.43%
- % toxicity ± SD at 10 μΜ Mitochondria [2]: 8.56%

SMILES: C[N+](C)(C)CCOP(=O)([O-])OCCCCCCCCCCCn1cc(CC2CCCC2)nn1 [Compound 28, 11-(4-(cyclopentylmethyl)-1H-1,2,3-triazol-1-yl)undecyl (2-(trimethylammo nio)ethyl) phosphate inner salt]
- inhibition of growth at 10 µM [1]: 58.3%
- % inhibition ± SD at 10 μΜ CYP2C19 (CYP2C19): –32.71%
- % toxicity ± SD at 10 μΜ Mitochondria [2]: 8.99%

SMILES: C[N+](C)(C)CCOP(=O)([O-])OCCCCCCCCCCCn1cc(CCCCCCCCC(=O)O)nn1 [Compound 34, 11-(4-(8-carboxyoctyl)-1H-1,2,3-triazol-1-yl)undecyl (2-(trimethylammonio)ethyl) phosphate inner salt]
- inhibition of growth at 10 µM [1]: 0%
- % inhibition ± SD at 10 μΜ CYP2C19 (CYP2C19): 4.89%

SMILES: CCCCCCCCCCCc1nnc(CCCCCCCCCCOP(=O)([O-])OCC[N+](C)(C)C)o1 [Compound 66, 2-(trimethylammonio)ethyl (10-(5-undecyl-1,3,4-oxadiazol-2-yl)decyl) phosphate inner salt]
- inhibition of growth at 10 µM [1]: 69.7%
- % inhibition ± SD at 10 μΜ CYP2C19 (CYP2C19): 23.97%
- % toxicity ± SD at 10 μΜ Mitochondria [2]: 19.78%

SMILES: C[N+](C)(C)CCOP(=O)([O-])OCCCCCn1cc(CCCCCCCCNC(=O)OCc2ccccc2)nn1 [Compound 31, 5-(4-(8-(((benzyloxy)carbonyl)amino)octyl)-1H-1,2,3-triazol-1-yl)pentyl (2-(trimethylammonio)ethyl) phosphate inner salt]
- inhibition of growth at 10 µM [1]: 0%
- % inhibition ± SD at 10 μΜ CYP2C19 (CYP2C19): –2.38%
- % toxicity ± SD at 10 μΜ Mitochondria [2]: 5.07%

SMILES: CCCCCCCCc1noc(CCCCCOP(=O)([O-])OCC[N+](C)(C)C)n1 [Compound 53, 5-(3-octyl-1,2,4-oxadiazol-5-yl)pentyl (2-(trimethylammonio)ethyl) phosphate inner salt]
- inhibition of growth at 10 µM [1]: 44.5%
- % inhibition ± SD at 10 μΜ CYP2C19 (CYP2C19): –17.22%
- % toxicity ± SD at 10 μΜ Mitochondria [2]: –1.08%

SMILES: CCCCCCCCCCc1cc(CCCCCCCCCCOP(=O)([O-])OCC[N+](C)(C)C)no1 [Compound 41, 10-(5-decylisoxazol-3-yl)decyl (2-(trimethylammonio)ethyl) phosphate inner salt]
- inhibition of growth at 10 µM [1]: 63.3%
- % inhibition ± SD at 10 μΜ CYP2C19 (CYP2C19): 5.65%
- % toxicity ± SD at 10 μΜ Mitochondria [2]: 2.99%

SMILES: C[N+](C)(C)CCOP(=O)([O-])OCCCCCn1cc(CCCCCCCCN)nn1 [Compound 35, 5-(4-(8-aminooctyl)-1H-1,2,3-triazol-1-yl)pentyl (2-(trimethylammonio)ethyl) phosphate inner salt]
- inhibition of growth at 10 µM [1]: 0%
- % inhibition ± SD at 10 μΜ CYP2C19 (CYP2C19): –3.09%
- % toxicity ± SD at 10 μΜ Mitochondria [2]: 6.58%

SMILES: C[N+](C)(C)CCCOP(=O)([O-])OCCCCCCCCCCCn1cc(CC2CCCCC2)nn1 [Compound 33, 11-(4-(cyclohexylmethyl)-1H-1,2,3-triazol-1-yl)undecyl (3-(trimethylammonio)propyl) phosphate inner salt]
- inhibition of growth at 10 µM [1]: 0%
- % inhibition ± SD at 10 μΜ CYP2C19 (CYP2C19): 4.22%
- % toxicity ± SD at 10 μΜ Mitochondria [2]: -1 ± 4.35%

SMILES: CCCCCc1cn(CCCCCCCCCCCOP(=O)([O-])OCC[N+](C)(C)C)nn1 [Compound 25, 11-(4-pentyl-1H-1,2,3-triazol-1-yl)undecyl (2-(trimethylammonio)ethyl) phosphate inner salt]
- inhibition of growth at 10 µM [1]: 66.2%
- % inhibition ± SD at 10 μΜ CYP2C19 (CYP2C19): –32.10%
- % toxicity ± SD at 10 μΜ Mitochondria [2]: 11.05%

SMILES: C[N+](C)(C)CCOP(=O)([O-])OCCCCCCCCCCCn1cc(CCCCCCCCNC(=O)OCc2ccccc2)nn1 [Compound 32, 11-(4-(8-(((benzyloxy)carbonyl)amino)octyl)-1H-1,2,3-triazol-1-yl)undecyl (2-(trimethylammonio)ethyl) phosphate inner salt]
- inhibition of growth at 10 µM [1]: 0%

SMILES: C[N+](C)(C)CCOP(=O)([O-])OCCCCCCCCCCCn1cc(CC2CCCCC2)nn1 [Compound 29, 11-(4-(cyclohexylmethyl)-1H-1,2,3-triazol-1-yl)undecyl (2-(trimethylammonio)ethyl) phosphate inner salt]
- inhibition of growth at 10 µM [1]: 69.9%
- % inhibition ± SD at 10 μΜ CYP2C19 (CYP2C19): –28.74%
- % toxicity ± SD at 10 μΜ Mitochondria [2]: 1.08%

SMILES: CCCCCCCc1nnc(CCCCCCCCCCOP(=O)([O-])OCC[N+](C)(C)C)o1 [Compound 65, 10-(5-heptyl-1,3,4-oxadiazol-2-yl)decyl (2-(trimethylammonio)ethyl) phosphate inner salt]
- inhibition of growth at 10 µM [1]: 92.2%
- % inhibition ± SD at 10 μΜ CYP2C19 (CYP2C19): –1.75%
- % toxicity ± SD at 10 μΜ Mitochondria [2]: 40.25%

SMILES: CCCCCCCCCCCCCCCCOP(=O)([O-])OCC[N+](C)(C)C [Miltefosine, hexadecylphosphocholine, reference compound]
- inhibition of growth at 10 µM [1]: 71.9%
- % inhibition ± SD at 10 μΜ CYP2C19 (CYP2C19): 7.92%
- % toxicity ± SD at 10 μΜ Mitochondria [2]: 3.99%
